Laboratory results reported in PubChem BioAssay AID248 (DTP/NCI, 2004).
Several values for one entry are separate records, joined by “and”; a condition that tells them apart may be missing. Equal values may be shown once. Toxic doses and inconclusive results are not listed. Rule as the data show it: active = T/C of 150% or more; inactive = T/C below 125%.

Test system: L1210 leukemia ip in BDF1 mice, survival T/C
Assay: NCI In Vivo Anticancer Drug Screen. Data for tumor model L1210 Leukemia (intraperitoneal) in B6D2F1 (BDF1) mice
Conditions: endpoint: mean survival time, higher = longer survival
Method in brief: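 In this screen, tumor-bearing mice given compound are compared to those given vehicle, and their survival values are reported as a treated-to-control quotient.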

[1] = dose: 50.0 mg/kg/injection, schedule: Q01DX009 (ip), vehicle: saline with Tween-80
[2] = dose: 100.0 mg/kg/injection, schedule: Q01DX009 (ip), vehicle: saline with Tween-80
[3] = dose: 200.0 mg/kg/injection, schedule: Q01DX009 (ip), vehicle: saline with Tween-80
[4] = dose: 100.0 mg/kg/injection, schedule: Q01DX009 (ip), vehicle: Klucel (hydroxypropylcellulose) (HPC)
[5] = dose: 100.0 mg/kg/injection, schedule: Q04DX003 (ip), vehicle: Klucel (hydroxypropylcellulose) (HPC)
[6] = dose: 100.0 mg/kg/injection, schedule: Q01DX001 (ip), vehicle: saline
[7] = dose: 75.0 mg/kg/injection, schedule: Q01DX001 (ip), vehicle: saline
[8] = dose: 100.0 mg/kg/injection, schedule: Q04DX002 (ip), vehicle: Klucel (hydroxypropylcellulose) (HPC)
[9] = dose: 200.0 mg/kg/injection, schedule: Q04DX002 (ip), vehicle: Klucel (hydroxypropylcellulose) (HPC)
[10] = dose: 400.0 mg/kg/injection, schedule: Q04DX002 (ip), vehicle: Klucel (hydroxypropylcellulose) (HPC)
[11] = dose: 100.0 mg/kg/injection, schedule: Q04DX003 (ip), vehicle: saline with Tween-80
[12] = dose: 200.0 mg/kg/injection, schedule: Q01DX001 (ip), vehicle: saline
[13] = dose: 400.0 mg/kg/injection, schedule: Q01DX001 (ip), vehicle: saline
[14] = dose: 25.0 mg/kg/injection, schedule: Q01DX001 (ip), vehicle: Klucel (hydroxypropylcellulose) (HPC)
[15] = dose: 50.0 mg/kg/injection, schedule: Q01DX001 (ip), vehicle: Klucel (hydroxypropylcellulose) (HPC)

Measured: T/C

ClC1=CC2CCC1C21CC1 (stereo unspecified)
inactive: [1] 105 % of control | dose: 100.0 mg/kg/injection, schedule: Q01DX005 (ip), vehicle: saline with Tween-80 92 % of control | [2] 94 % of control | dose: 100.0 mg/kg/injection, schedule: Q04DX002 (ip), vehicle: saline with Tween-80 87 % of control | dose: 200.0 mg/kg/injection, schedule: Q01DX005 (ip), vehicle: saline with Tween-80 96 % of control | [3] 97 % of control | dose: 200.0 mg/kg/injection, schedule: Q04DX002 (ip), vehicle: saline with Tween-80 100 % of control | dose: 400.0 mg/kg/injection, schedule: Q04DX002 (ip), vehicle: saline with Tween-80 103 % of control

CC1=CC(=C(c2ccccc2)c2ccccc2)C=C(C)C1=O
inactive: dose: 12.0 mg/kg/injection, schedule: Q01DX009 (ip), vehicle: Klucel (hydroxypropylcellulose) (HPC) 103 % of control | dose: 25.0 mg/kg/injection, schedule: Q01DX009 (ip), vehicle: Klucel (hydroxypropylcellulose) (HPC) 107 % of control | dose: 50.0 mg/kg/injection, schedule: Q01DX009 (ip), vehicle: Klucel (hydroxypropylcellulose) (HPC) 97 % of control | [4] 100 % of control | [5] 102 % of control | dose: 200.0 mg/kg/injection, schedule: Q04DX003 (ip), vehicle: Klucel (hydroxypropylcellulose) (HPC) 102 % of control | dose: 400.0 mg/kg/injection, schedule: Q04DX003 (ip), vehicle: Klucel (hydroxypropylcellulose) (HPC) 122 % of control

CC(=O)OCC1OC(N2c3ccccc3CC2C)C(OC(C)=O)C(OC(C)=O)C1OC(C)=O (stereo unspecified)
inactive: dose: 25.0 mg/kg/injection, schedule: Q01DX001 (ip), vehicle: saline 94 % of control | dose: 50.0 mg/kg/injection, schedule: Q01DX001 (ip), vehicle: saline 94 % of control | [6] 94 % of control

CN1CSC(=S)N(C)C1
inactive: dose: 25.0 mg/kg/injection, schedule: Q04DX003 (ip), vehicle: Klucel (hydroxypropylcellulose) (HPC) 95 % of control | dose: 50.0 mg/kg/injection, schedule: Q04DX003 (ip), vehicle: Klucel (hydroxypropylcellulose) (HPC) 95 % of control | [5] 95 % of control and 101 % of control

CN1CCCCC1c1ccccc1 (stereo unspecified)
inactive: [7] 103 % of control

CC(=O)OCCn1c([N+](=O)[O-])cnc1/C=[N+](\[O-])C1CCCCC1
inactive: [8] 107 % of control | [9] 100 % of control | [10] 103 % of control

c1ccc(CCSc2ccccc2)cc1
inactive: [2] 102 % of control | [11] 103 % of control | [3] 98 % of control | dose: 200.0 mg/kg/injection, schedule: Q04DX003 (ip), vehicle: saline with Tween-80 97 % of control | dose: 400.0 mg/kg/injection, schedule: Q01DX009 (ip), vehicle: saline with Tween-80 95 % of control | dose: 400.0 mg/kg/injection, schedule: Q04DX003 (ip), vehicle: saline with Tween-80 94 % of control

Cc1cc(O)c(C(=O)/C=C/c2ccccc2)c(=O)[nH]1
inactive: [6] 86 % of control | [12] 96 % of control | [13] 92 % of control

O=C(Nc1ccccc1CSc1nc2nc[nH]c(=O)c2[nH]1)c1ccc(S(=O)(=O)F)cc1
inactive: [14] 108 % of control | [15] 111 % of control | dose: 100.0 mg/kg/injection, schedule: Q01DX001 (ip), vehicle: Klucel (hydroxypropylcellulose) (HPC) 114 % of control

Cc1ccc(NC(=O)COc2ccc(Cl)cc2Cl)cc1NC(=O)COc1ccc(Cl)cc1Cl
inactive: [8] 89 % of control | [9] 92 % of control | [10] 100 % of control

NC1C(=O)Nc2cc(O)c(C(=O)O)cc21 (stereo unspecified)
inactive: dose: 100.0 mg/kg/injection, schedule: Q01DX001 (ip), vehicle: gum acacia 100 % of control | dose: 200.0 mg/kg/injection, schedule: Q01DX001 (ip), vehicle: gum acacia 100 % of control | dose: 400.0 mg/kg/injection, schedule: Q01DX001 (ip), vehicle: gum acacia 97 % of control

N#CCCN(CCC#N)c1ccccc1
inactive: dose: 100.0 mg/kg/injection, schedule: Q01DX009 (ip), vehicle: saline 94 % of control | dose: 200.0 mg/kg/injection, schedule: Q01DX009 (ip), vehicle: saline 102 % of control | dose: 400.0 mg/kg/injection, schedule: Q01DX009 (ip), vehicle: saline 107 % of control

Nc1nc(N)c(CCCOc2ccc(NC(=O)CBr)cc2)c(N)n1
inactive: dose: 12.5 mg/kg/injection, schedule: Q01DX001 (ip), vehicle: Klucel (hydroxypropylcellulose) (HPC) 98 % of control | [14] 100 % of control | [15] 105 % of control

C=CC1CN2CCC1CC2C(OC(C)=O)c1ccnc2ccc(OC)cc12 (stereo unspecified)
inactive: dose: 50.0 mg/kg/injection, schedule: Q01DX001 (ip), vehicle: carboxymethylcellulose (CMC) 97 % of control | dose: 100.0 mg/kg/injection, schedule: Q01DX001 (ip), vehicle: carboxymethylcellulose (CMC) 101 % of control | dose: 200.0 mg/kg/injection, schedule: Q01DX001 (ip), vehicle: carboxymethylcellulose (CMC) 97 % of control | dose: 400.0 mg/kg/injection, schedule: Q01DX001 (ip), vehicle: carboxymethylcellulose (CMC) 92 % of control

CCN(CC)C(=O)c1cccc(N)c1
inactive: [6] 98 % of control | [12] 98 % of control | [13] 95 % of control

O=C(N/N=C\c1ccc([N+](=O)[O-])cc1)c1ccco1
inactive: dose: 100.0 mg/kg/injection, schedule: Q01DX001 (ip), vehicle: other 93 % of control | dose: 200.0 mg/kg/injection, schedule: Q01DX001 (ip), vehicle: other 93 % of control | dose: 400.0 mg/kg/injection, schedule: Q01DX001 (ip), vehicle: other 93 % of control

COC(=O)CCN(C(=O)c1ccccc1)c1ccccc1C(=O)OC
inactive: [7] 98 % of control | dose: 150.0 mg/kg/injection, schedule: Q01DX001 (ip), vehicle: saline 93 % of control | dose: 300.0 mg/kg/injection, schedule: Q01DX001 (ip), vehicle: saline 86 % of control

N=C(CCCc1ccccc1)SCc1ccccc1
inactive: [1] 103 % of control | dose: 50.0 mg/kg/injection, schedule: Q04DX003 (ip), vehicle: saline with Tween-80 94 % of control | dose: 100.0 mg/kg/injection, schedule: Q01DX001 (ip), vehicle: saline with Tween-80 102 % of control | [2] 92 % of control | [11] 93 % of control | dose: 200.0 mg/kg/injection, schedule: Q01DX001 (ip), vehicle: saline with Tween-80 102 % of control

NNc1nc(Cl)cc2c1ncn2C1OC(CO)C(O)C1O (stereo unspecified)
inactive: dose: 100.0 mg/kg/injection, schedule: Q01DX005 (ip), vehicle: saline 98 % of control | dose: 200.0 mg/kg/injection, schedule: Q01DX005 (ip), vehicle: saline 113 % of control

O=C1NC(=O)C(CCCCCl)N1 (stereo unspecified)
inactive: [6] 91 % of control | [12] 87 % of control | [13] 94 % of control

NC(=O)c1ccccc1NC(=O)c1ccccc1Cl
inactive: [4] 102 % of control | dose: 200.0 mg/kg/injection, schedule: Q01DX009 (ip), vehicle: Klucel (hydroxypropylcellulose) (HPC) 100 % of control | dose: 400.0 mg/kg/injection, schedule: Q01DX009 (ip), vehicle: Klucel (hydroxypropylcellulose) (HPC) 93 % of control
